The values that follow come from publication PMC6476934, “A Flavor Lactone Mimicking AHL Quorum-Sensing Signals Exploits the Broad Affinity of the QsdR Regulator to Stimulate Transcription of the Rhodococcal qsd Operon Involved in Quorum-Quenching and Biocontrol Activities” (Frontiers in Microbiology, 2019).

Series [1] has as its target T1, QsdR (His-tagged) (Rhodococcus erythropolis R138?) (UniProt A0A0C2W9F0).
T1 sequence: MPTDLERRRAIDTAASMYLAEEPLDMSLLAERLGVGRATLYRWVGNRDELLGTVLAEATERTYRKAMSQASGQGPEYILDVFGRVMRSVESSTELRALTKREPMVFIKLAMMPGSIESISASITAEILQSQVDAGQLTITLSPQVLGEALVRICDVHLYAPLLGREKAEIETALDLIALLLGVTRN
The series can be described thus: EMSA. Conditions: LightShift Chemiluminescent EMSA Kit buffer (composition, salt, pH not stated); QsdR in Qiagen elution buffer with 50% glycerol; 20 min at room temperature ….

Series [2] deals with T2, QsdR (Rhodococcus erythropolis, UniProt A0A0C2W9F0).
T2 construct: gene I3517_23075; qsdR ORF (563 bp NdeI-BamHI fragment) in pET19, His-tagged, E. coli BL21DE3, Ni-NTA; about 20 kDa; dimer
T2 sequence (A0A0C2W9F0 1-186): T1 sequence
The series can be described thus: EMSA with biotinylated qsdR-qsdA intergenic DNA, release of DNA. Conditions: ligand/QsdR molecular ratio 0.1 to 100, 3 μg QsdR, 0.4 ng DNA, room temperature. It is filed as binding.

As for “GGTAGGCATCGGGACATTCTCTCCGGTTGTCCGGTACTGCACAATTTCGGCGGTCGAACAGAGGTGGGCTTCGGGTGGCTCGAGCCTATTGACGAACCAAGCGACGTGAGACACACTAGCTCATTGTCTCATGTTAGTGATGGCGATCACAGTCAGGGGTTCGATCGATGAG (double strand) [qsdR-qsdA intergenic DNA fragment]”, in series [1], the binding result was “binds”.
For the compound `N[C@H]1CCOC1=O` [HSL, homoserine lactone], the “EMSA with biotinylated qsdR-qsdA intergenic DNA, release of DNA” value in series [2] (HSL in 10 mM Tris pH 7, positive control) is “inhibition of the DNA-binding activity of QsdR was also observed in the presence of HSL”.
As to `CCC1CCC(=O)O1` (stereo not drawn) [GCL, γ-caprolactone], the “EMSA with biotinylated qsdR-qsdA intergenic DNA, release of DNA” value in series [2] (GCL in methanol-water 20:80) is reported as “The addition of increasing amounts of GCL led to a proportional increase in the amount”.
